{"source": "PubChem BioAssay AID2060907", "about": "(Molecular Pharmacology Branch, DTP, NCI, 2025)", "system": "388556-164-R-J1-PDC complex spheroid viability", "test": "Anticancer human tumor 388556-164-R-J1-PDC patient-derived colon adenocarcinoma cell line growth inhibition [RAS]", "details": "for pIC50: curve of first compound; for viability, T/C: stronger effect = lower value", "how_it_was_run": "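Tumour cells grown as complex spheroids with HUVEC endothelial cells and mesenchymal stem cells, treated with RAS pathway inhibitor combinations. Each agent spans half-log steps from near clinical Cmax, or 10 microM where Cmax is unknown.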", "note": "pIC50: −log10 of the molar value.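 Also: spheroids exposed to compound for 7 days before readout.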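 For viability, T/C in this document: 100% = DMSO vehicle control luminescence.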", "data": [{"smiles": "CC1(C)CCC(Nc2ncc(C(F)(F)F)c(-c3c[nH]c4c(P(C)(C)=O)c(C#N)ccc34)n2)CN1", "note": "(stereo unspecified) + C#Cc1c(F)ccc2cc(O)cc(-c3ncc4c(N5CC6CCC(C5)N6)nc(OCC56CCCN5CC(F)C6)nc4c3F)c12", "values": [{"measurement": "pIC50", "setting": "second compound 0.0316 µM", "result": "< 6.52"}, {"measurement": "pIC50", "setting": "second compound 0.1 µM", "result": "< 6.52"}, {"measurement": "pIC50", "setting": "second compound 0.316 µM", "result": "< 6.52"}, {"measurement": "pIC50", "setting": "second compound 1 µM", "result": "< 6.52"}, {"measurement": "pIC50", "setting": "second compound 3.16 µM", "result": "< 6.52"}, {"measurement": "pIC50", "setting": "second compound 10 µM", "result": "< 6.52"}, {"measurement": "viability, T/C", "setting": "second compound 0.0316 µM, first compound 0.000949 µM", "result": 111, "unit": "%"}, {"measurement": "viability, T/C", "setting": "second compound 0.0316 µM, first compound 0.003 µM", "result": 110, "unit": "%"}, {"measurement": "viability, T/C", "setting": "second compound 0.0316 µM, first compound 0.00949 µM", "result": 112, "unit": "%"}, {"measurement": "viability, T/C", "setting": "second compound 0.0316 µM, first compound 0.03 µM", "result": 94.9, "unit": "%"}, {"measurement": "viability, T/C", "setting": "second compound 0.0316 µM, first compound 0.0949 µM", "result": 118, "unit": "%"}, {"measurement": "viability, T/C", "setting": "second compound 0.0316 µM, first compound 0.3 µM", "result": 97.3, "unit": "%"}, {"measurement": "viability, T/C", "setting": "second compound 0.1 µM, first compound 0.000949 µM", "result": 110, "unit": "%"}, {"measurement": "viability, T/C", "setting": "second compound 0.1 µM, first compound 0.003 µM", "result": 112, "unit": "%"}, {"measurement": "viability, T/C", "setting": "second compound 0.1 µM, first compound 0.00949 µM", "result": 110, "unit": "%"}, {"measurement": "viability, T/C", "setting": "second compound 0.1 µM, first compound 0.03 µM", "result": 101, "unit": "%"}, {"measurement": "viability, T/C", "setting": "second compound 0.1 µM, first compound 0.0949 µM", "result": 116, "unit": "%"}, {"measurement": "viability, T/C", "setting": "second compound 0.1 µM, first compound 0.3 µM", "result": 92.1, "unit": "%"}, {"measurement": "viability, T/C", "setting": "second compound 0.316 µM, first compound 0.000949 µM", "result": 100, "unit": "%"}, {"measurement": "viability, T/C", "setting": "second compound 0.316 µM, first compound 0.003 µM", "result": 100, "unit": "%"}, {"measurement": "viability, T/C", "setting": "second compound 0.316 µM, first compound 0.00949 µM", "result": 91.1, "unit": "%"}, {"measurement": "viability, T/C", "setting": "second compound 0.316 µM, first compound 0.03 µM", "result": 114, "unit": "%"}, {"measurement": "viability, T/C", "setting": "second compound 0.316 µM, first compound 0.0949 µM", "result": 115, "unit": "%"}, {"measurement": "viability, T/C", "setting": "second compound 0.316 µM, first compound 0.3 µM", "result": 92.9, "unit": "%"}, {"measurement": "viability, T/C", "setting": "second compound 1 µM, first compound 0.000949 µM", "result": 97.1, "unit": "%"}, {"measurement": "viability, T/C", "setting": "second compound 1 µM, first compound 0.003 µM", "result": 92, "unit": "%"}, {"measurement": "viability, T/C", "setting": "second compound 1 µM, first compound 0.00949 µM", "result": 80.7, "unit": "%"}, {"measurement": "viability, T/C", "setting": "second compound 1 µM, first compound 0.03 µM", "result": 96.7, "unit": "%"}, {"measurement": "viability, T/C", "setting": "second compound 1 µM, first compound 0.0949 µM", "result": 100, "unit": "%"}, {"measurement": "viability, T/C", "setting": "second compound 1 µM, first compound 0.3 µM", "result": 84.2, "unit": "%"}, {"measurement": "viability, T/C", "setting": "second compound 3.16 µM, first compound 0.000949 µM", "result": 83, "unit": "%"}, {"measurement": "viability, T/C", "setting": "second compound 3.16 µM, first compound 0.003 µM", "result": 78.2, "unit": "%"}, {"measurement": "viability, T/C", "setting": "second compound 3.16 µM, first compound 0.00949 µM", "result": 99.8, "unit": "%"}, {"measurement": "viability, T/C", "setting": "second compound 3.16 µM, first compound 0.03 µM", "result": 99.5, "unit": "%"}, {"measurement": "viability, T/C", "setting": "second compound 3.16 µM, first compound 0.0949 µM", "result": 96.3, "unit": "%"}, {"measurement": "viability, T/C", "setting": "second compound 3.16 µM, first compound 0.3 µM", "result": 77.8, "unit": "%"}, {"measurement": "viability, T/C", "setting": "second compound 10 µM, first compound 0.000949 µM", "result": 70.7, "unit": "%"}, {"measurement": "viability, T/C", "setting": "second compound 10 µM, first compound 0.003 µM", "result": 65.1, "unit": "%"}, {"measurement": "viability, T/C", "setting": "second compound 10 µM, first compound 0.00949 µM", "result": 76.6, "unit": "%"}, {"measurement": "viability, T/C", "setting": "second compound 10 µM, first compound 0.03 µM", "result": 81, "unit": "%"}, {"measurement": "viability, T/C", "setting": "second compound 10 µM, first compound 0.0949 µM", "result": 62.7, "unit": "%"}, {"measurement": "viability, T/C", "setting": "second compound 10 µM, first compound 0.3 µM", "result": 63.4, "unit": "%"}]}, {"smiles": "Nc1ccn(C2OC(CO)C(O)C2(F)F)c(=O)n1", "note": "(stereo unspecified) + CCn1c(-c2cc(N3CCN(C)CC3)cnc2C(C)OC)c2c3cc(ccc31)-c1csc(n1)CC(NC(=O)C1CC1C)C(=O)N1CCCC(N1)C(=O)OCC(C)(C)C2", "values": [{"measurement": "pIC50", "setting": "second compound 0.000949 µM", "result": "< 6.00"}, {"measurement": "pIC50", "setting": "second compound 0.003 µM", "result": "< 6.00"}, {"measurement": "pIC50", "setting": "second compound 0.00949 µM", "result": "< 6.00"}, {"measurement": "pIC50", "setting": "second compound 0.03 µM", "result": 7.04}, {"measurement": "pIC50", "setting": "second compound 0.0949 µM", "result": "> 8.50"}, {"measurement": "pIC50", "setting": "second compound 0.3 µM", "result": "> 8.50"}, {"measurement": "viability, T/C", "setting": "second compound 0.000949 µM, first compound 0.00316 µM", "result": 88.9, "unit": "%"}, {"measurement": "viability, T/C", "setting": "second compound 0.000949 µM, first compound 0.01 µM", "result": 93.5, "unit": "%"}, {"measurement": "viability, T/C", "setting": "second compound 0.000949 µM, first compound 0.0316 µM", "result": 76.6, "unit": "%"}, {"measurement": "viability, T/C", "setting": "second compound 0.000949 µM, first compound 0.1 µM", "result": 73.6, "unit": "%"}, {"measurement": "viability, T/C", "setting": "second compound 0.000949 µM, first compound 0.316 µM", "result": 67.1, "unit": "%"}, {"measurement": "viability, T/C", "setting": "second compound 0.000949 µM, first compound 1 µM", "result": 71.1, "unit": "%"}, {"measurement": "viability, T/C", "setting": "second compound 0.003 µM, first compound 0.00316 µM", "result": 101, "unit": "%"}, {"measurement": "viability, T/C", "setting": "second compound 0.003 µM, first compound 0.01 µM", "result": 84, "unit": "%"}, {"measurement": "viability, T/C", "setting": "second compound 0.003 µM, first compound 0.0316 µM", "result": 70, "unit": "%"}, {"measurement": "viability, T/C", "setting": "second compound 0.003 µM, first compound 0.1 µM", "result": 65, "unit": "%"}, {"measurement": "viability, T/C", "setting": "second compound 0.003 µM, first compound 0.316 µM", "result": 65.3, "unit": "%"}, {"measurement": "viability, T/C", "setting": "second compound 0.003 µM, first compound 1 µM", "result": 61.8, "unit": "%"}, {"measurement": "viability, T/C", "setting": "second compound 0.00949 µM, first compound 0.00316 µM", "result": 80.1, "unit": "%"}, {"measurement": "viability, T/C", "setting": "second compound 0.00949 µM, first compound 0.01 µM", "result": 62.9, "unit": "%"}, {"measurement": "viability, T/C", "setting": "second compound 0.00949 µM, first compound 0.0316 µM", "result": 60.7, "unit": "%"}, {"measurement": "viability, T/C", "setting": "second compound 0.00949 µM, first compound 0.1 µM", "result": 57.8, "unit": "%"}, {"measurement": "viability, T/C", "setting": "second compound 0.00949 µM, first compound 0.316 µM", "result": 56.9, "unit": "%"}, {"measurement": "viability, T/C", "setting": "second compound 0.00949 µM, first compound 1 µM", "result": 52.7, "unit": "%"}, {"measurement": "viability, T/C", "setting": "second compound 0.03 µM, first compound 0.00316 µM", "result": 72, "unit": "%"}, {"measurement": "viability, T/C", "setting": "second compound 0.03 µM, first compound 0.01 µM", "result": 53.4, "unit": "%"}, {"measurement": "viability, T/C", "setting": "second compound 0.03 µM, first compound 0.0316 µM", "result": 56.5, "unit": "%"}, {"measurement": "viability, T/C", "setting": "second compound 0.03 µM, first compound 0.1 µM", "result": 47.1, "unit": "%"}, {"measurement": "viability, T/C", "setting": "second compound 0.03 µM, first compound 0.316 µM", "result": 52.3, "unit": "%"}, {"measurement": "viability, T/C", "setting": "second compound 0.03 µM, first compound 1 µM", "result": 46.1, "unit": "%"}, {"measurement": "viability, T/C", "setting": "second compound 0.0949 µM, first compound 0.00316 µM", "result": 42.1, "unit": "%"}, {"measurement": "viability, T/C", "setting": "second compound 0.0949 µM, first compound 0.01 µM", "result": 46.2, "unit": "%"}, {"measurement": "viability, T/C", "setting": "second compound 0.0949 µM, first compound 0.0316 µM", "result": 40.6, "unit": "%"}, {"measurement": "viability, T/C", "setting": "second compound 0.0949 µM, first compound 0.1 µM", "result": 38.6, "unit": "%"}, {"measurement": "viability, T/C", "setting": "second compound 0.0949 µM, first compound 0.316 µM", "result": 40.6, "unit": "%"}, {"measurement": "viability, T/C", "setting": "second compound 0.0949 µM, first compound 1 µM", "result": 36.4, "unit": "%"}, {"measurement": "viability, T/C", "setting": "second compound 0.3 µM, first compound 0.00316 µM", "result": 33.9, "unit": "%"}, {"measurement": "viability, T/C", "setting": "second compound 0.3 µM, first compound 0.01 µM", "result": 35, "unit": "%"}, {"measurement": "viability, T/C", "setting": "second compound 0.3 µM, first compound 0.0316 µM", "result": 32.5, "unit": "%"}, {"measurement": "viability, T/C", "setting": "second compound 0.3 µM, first compound 0.1 µM", "result": 30.1, "unit": "%"}, {"measurement": "viability, T/C", "setting": "second compound 0.3 µM, first compound 0.316 µM", "result": 31.4, "unit": "%"}, {"measurement": "viability, T/C", "setting": "second compound 0.3 µM, first compound 1 µM", "result": 28.8, "unit": "%"}]}, {"smiles": "NC1c2ccccc2OC12CCN(c1cnc3c(N4CCCc5ncccc54)n[nH]c3n1)CC2", "note": "(stereo unspecified)", "values": [{"measurement": "viability, T/C", "setting": "compound 0.0316 µM", "result": "70% [middle of 4 runs]"}, {"measurement": "viability, T/C", "setting": "compound 0.1 µM", "result": "59.9% [middle of 4 runs]"}, {"measurement": "viability, T/C", "setting": "compound 0.316 µM", "result": "48.8% [middle of 4 runs]"}, {"measurement": "viability, T/C", "setting": "compound 1 µM", "result": "41.2% [middle of 4 runs]"}, {"measurement": "viability, T/C", "setting": "compound 3.16 µM", "result": "43.6% [middle of 4 runs]"}, {"measurement": "viability, T/C", "setting": "compound 10 µM", "result": "37.6% [middle of 4 runs]"}, {"measurement": "IC50", "setting": "curve of compound", "result": "242 nM [middle of 4 runs]"}]}]}
